According to the NIST ThermoML archive (doi:10.1016/j.jct.2016.03.008):
Numbers after ± are expanded uncertainties.

Test: mn = molality of the nth substance listed, in mol/kg
Details: 101 kPa, Liquid; for viscosity: Capillary tube (Ostwald / Ubbelohde) method; for mass density: Vibrating tube method

O=c1cc[nH]c(=O)[nH]1 [2,4(1H,3H)-pyrimidinedione] + O
Details	mass density, m1 = 0.005 [kg/m3]	mass density, m1 = 0.01 [kg/m3]	mass density, m1 = 0.015 [kg/m3]	mass density, m1 = 0.02 [kg/m3]	viscosity, m1 = 0.005 [mPa·s]	viscosity, m1 = 0.01 [mPa·s]	viscosity, m1 = 0.015 [mPa·s]	viscosity, m1 = 0.02 [mPa·s]
298.15 K	997.23 ± 1	997.44 ± 1	997.63 ± 1	997.82 ± 1	0.8929 ± 0.021	0.8953 ± 0.025	0.8977 ± 0.022	0.9002 ± 0.021
308.15 K	994.25 ± 1	994.44 ± 1	994.63 ± 1	994.82 ± 1	0.722 ± 0.021	0.7232 ± 0.021	0.7245 ± 0.021	0.727 ± 0.021
318.15 K	990.42 ± 1	990.61 ± 1	990.79 ± 1	990.98 ± 1	0.598 ± 0.02	0.6004 ± 0.022	0.6017 ± 0.021	0.6041 ± 0.02

C[N+](C)(C)CC(=O)O.[Cl-] [betaine hydrochloride] + O
Details	mass density, 298.15 K [kg/m3]	mass density, 308.15 K [kg/m3]	mass density, 318.15 K [kg/m3]	viscosity, 298.15 K [mPa·s]	viscosity, 308.15 K [mPa·s]	viscosity, 318.15 K [mPa·s]
m1 = 0.006	997.26 ± 1	994.25 ± 1	990.47 ± 1	0.8929 ± 0.021	0.7208 ± 0.021	0.598 ± 0.02
m1 = 0.0134	997.52 ± 1	994.51 ± 1	990.73 ± 1	0.8965 ± 0.021	0.7244 ± 0.021	0.6005 ± 0.021
m1 = 0.0267	997.98 ± 1	994.97 ± 1	991.19 ± 1	0.9009 ± 0.021	0.7288 ± 0.021	0.6054 ± 0.021
m1 = 0.0401	998.43 ± 1	995.42 ± 1	991.65 ± 1	0.9064 ± 0.021	0.7331 ± 0.021	0.6104 ± 0.021
m1 = 0.0536	998.87 ± 1	995.87 ± 1	992.1 ± 1	0.9124 ± 0.021	0.7381 ± 0.021	0.6153 ± 0.021
m1 = 0.0671	999.31 ± 1	996.31 ± 1	992.54 ± 1	0.9181 ± 0.021	0.7427 ± 0.021	0.62 ± 0.021
